Results on nine molecules are retold here after ChEMBL document CHEMBL1201862, “PubChem BioAssay data set” (2004).

Among the test systems are UACC-257; SW-620; 786-0; UACC-62; HCT-15; OVCAR-8; SN12C; U-251; SF-539; CCRF-CEM; HOP-62; M14; LOX IMVI; Malme-3M; SNB-19; ACHN; SNB-75; NCI-H226.
Test in all cases: NCI anticancer screen, dose series, 48 h

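Grown in 96-well plates, cells were treated for 48 hours with each compound at five concentrations. Insufficient inhibition: endpoint recorded as highest concentration tested. GI50 is the concentration that inhibits growth by half.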 The source made the active and inactive calls. Rule as the data show it: active = GI50 up to about 1.1 µM and inactive = higher.

For the molecule `COc1ccc(N(C)Sc2ccccc2)cc1`, the GI50 with UACC-257 is 37 µM (inactive); in the test on SW-620, 43.7 µM (inactive); in the test with 786-0, 16.9 µM (inactive); with UACC-62, 34.7 µM (inactive); in the test with HCT-15, 38.1 µM; in the test with OVCAR-8 it was 49.9 µM (inactive). For the same molecule, the GI50 in the test with SN12C is 21.1 µM (inactive); in the test on U-251 it was 32.8 µM (inactive); in the test with SF-539, 20.4 µM (inactive); in the test with CCRF-CEM, 6.38 µM (inactive); in the test on HOP-62, 95.5 µM (inactive); in the test on M14, 52.5 µM (inactive). For the same molecule, the GI50 was 31.1 µM (inactive) with LOX IMVI, > 100 µM (inactive) in the test on Malme-3M and 51.1 µM (inactive) with SNB-19.
In the case of `O=C1/C(=C/c2ccc3c(c2)OCO3)SC2C=Nc3ccccc3N12` (centres undefined), the GI50 in the test with UACC-257 is > 100 µM (inactive); in the test with SW-620, > 100 µM (inactive); with 786-0 it was > 100 µM (inactive); in the test with UACC-62, 54.8 µM (inactive); in the test with HCT-15 it was above 100 µM; in the test on OVCAR-8, > 100 µM (inactive). For the same molecule, the GI50 is > 100 µM (inactive) with SN12C; > 100 µM (inactive) in the test on ACHN; > 100 µM (inactive) with U-251; 86.1 µM (inactive) in the test with SF-539; 28.9 µM (inactive) in the test on SNB-75; > 100 µM (inactive) with NCI-H226. The GI50 with HOP-62 was > 100 µM (inactive); in the test with M14, > 100 µM (inactive); with LOX IMVI, > 10 µM (inactive); with Malme-3M, > 100 µM (inactive); with SNB-19 it was > 100 µM (inactive).
`CC1(c2ccccc2)CC12C(=O)NC(=O)NC2=O` (centres undefined): the GI50 was > 100 µM (inactive) with UACC-257; > 100 µM (inactive) with SW-620; > 100 µM (inactive) with 786-0; > 100 µM (inactive) with UACC-62; above 100 µM in the test with HCT-15; > 100 µM (inactive) in the test with OVCAR-8. For the same molecule, the GI50 with SN12C, in the test with ACHN, with U-251, in the test with SF-539, in the test with CCRF-CEM and in the test on NCI-H226 was > 100 µM (inactive) throughout. Besides, the GI50 with HOP-62, in the test on M14, with LOX IMVI, with Malme-3M and in the test with SNB-19 was > 100 µM (inactive) each time.
Turning to `COCOCCCCCO[Si](C)(C)C(C)(C)C`, the GI50 in the test with UACC-257 was 16.5 µM (inactive); with SW-620, 17.3 µM (inactive); in the test on 786-0 it was 14.4 µM (inactive); in the test with UACC-62, 25.3 µM (inactive); in the test with HCT-15 it was 17.7 µM; with OVCAR-8, 19.5 µM (inactive). In addition, the GI50 with SN12C was 17.2 µM (inactive); with ACHN, 14.4 µM (inactive); in the test on U-251, 15.8 µM (inactive); with SF-539, 19.1 µM (inactive); with CCRF-CEM it was 16.7 µM (inactive); in the test on SNB-75 it was 30.3 µM (inactive). The GI50 was 19 µM (inactive) in the test on M14, 16.5 µM (inactive) in the test with LOX IMVI, 18.2 µM (inactive) in the test on Malme-3M and 16 µM (inactive) with SNB-19.
On to `Cc1cc(NS(=O)(=O)c2ccc(Nc3c4ccccc4nc4c(C(=O)Nc5ccc(S(=O)(=O)N=C(N)N)cc5)ccc(Cl)c34)cc2)no1`, for which the GI50 with UACC-257 is > 100 µM (inactive); in the test on 786-0, 50.4 µM (inactive); in the test on UACC-62, 25.1 µM (inactive); with OVCAR-8, 19.3 µM (inactive); in the test with SN12C it was 31.2 µM (inactive); with ACHN, 60.5 µM (inactive). For the same molecule, the GI50 in the test with U-251 is 28.6 µM (inactive); in the test on SF-539, 18.5 µM (inactive); in the test with SNB-75 it was 25.9 µM (inactive); in the test with NCI-H226, 28.2 µM (inactive); in the test on HOP-62 it was 22.1 µM (inactive); in the test with M14, > 100 µM (inactive). For the same molecule, the GI50 in the test on LOX IMVI is 19.6 µM (inactive); with Malme-3M it was 46.7 µM (inactive); with SNB-19, 31.7 µM (inactive).
`CN(C)CCNC(=O)c1cccc2c1nc(-c1ccccn1)c1ccccc12`: the GI50 with UACC-257 is 16.7 µM (inactive); in the test with SW-620, 11.2 µM (inactive); in the test with 786-0 it was 18.9 µM (inactive); with UACC-62, 17.1 µM (inactive); in the test on HCT-15 it was 13.8 µM; in the test on OVCAR-8, 16 µM (inactive). The GI50 in the test with SN12C was 23.9 µM (inactive); in the test on ACHN, 15.5 µM (inactive); in the test with U-251, 16.3 µM (inactive); in the test with SF-539, 16.4 µM (inactive); with CCRF-CEM it was 13.5 µM (inactive); with SNB-75 it was 21.3 µM (inactive). In addition, the GI50 was > 10 µM (inactive) with NCI-H226; 15.1 µM (inactive) with HOP-62; 15.8 µM (inactive) in the test with M14; > 10 µM (inactive) in the test with LOX IMVI; 30.7 µM (inactive) in the test on SNB-19.
Turning to `COc1ccc(C(=O)NCCC2=CCCCC2)cc1`, the GI50 in the test with UACC-257 is > 100 µM (inactive); in the test with SW-620, > 100 µM (inactive); in the test on 786-0 it was > 100 µM (inactive); with UACC-62, > 100 µM (inactive); in the test on HCT-15, above 100 µM; with OVCAR-8, > 100 µM (inactive). The GI50 in the test on SN12C, in the test with ACHN, in the test on U-251, in the test with SF-539, with CCRF-CEM and in the test on SNB-75 was > 100 µM (inactive) each time. Also, the GI50 in the test on HOP-62, in the test on LOX IMVI, with Malme-3M and in the test on SNB-19 was > 100 µM (inactive) in each case.
Take `CCn1c(CSc2nc(-c3ccccc3)c(-c3ccccc3)[nH]2)n[nH]c1=S`: the GI50 was > 100 µM (inactive) in the test on UACC-257; > 100 µM (inactive) in the test with 786-0; above 100 µM in the test with HCT-15; > 100 µM (inactive) in the test on OVCAR-8; > 100 µM (inactive) in the test with SN12C; > 100 µM (inactive) in the test with ACHN. In addition, the GI50 with U-251, with SF-539, with CCRF-CEM, in the test with SNB-75, with NCI-H226 and with HOP-62 was > 100 µM (inactive) in each case. The GI50 with M14, in the test with LOX IMVI, in the test with Malme-3M and in the test with SNB-19 was > 100 µM (inactive) throughout.
On to `C#Cc1cccc(N2C(=O)CC(=P(c3ccccc3)(c3ccccc3)c3ccccc3)C2=O)c1`, for which the GI50 with UACC-257 is 51.4 µM (inactive); with SW-620, 54.6 µM (inactive); in the test on 786-0, 24.5 µM (inactive); in the test on UACC-62, 29.3 µM (inactive); with OVCAR-8, > 100 µM (inactive); with SN12C, > 100 µM (inactive). The GI50 with ACHN was > 100 µM (inactive); in the test with U-251, 71.8 µM (inactive); in the test on CCRF-CEM it was 50.1 µM (inactive); with SNB-75 it was 91.8 µM (inactive); with NCI-H226, 58.2 µM (inactive); in the test with HOP-62, 67.1 µM (inactive). Moreover, the values for the GI50 with M14, with Malme-3M and with SNB-19 were 47.6 µM (inactive), 80 µM (inactive) and 69 µM (inactive), respectively.
